In patent US20020086278A1, “CHROMOGENIC MEDIA CONTAINING BLOOD OR HEMIN” (priority 1999, published 2002):
Read-outs that look alike come from different tables or passages of the source.

Experiments:
Type in all cases: cell-based
[1] = system: Branhamella catarrhalis (brca); test: Example 3: colony color on chromogenic TSA II with 5% sheep blood (chromogen in medium); conditions: for Colony Color: CO2, 21 h
[2] = system: Streptococcus agalactiae (stag); test: as above
[3] = system: E. coli (non-O157) (esco)
[4] = system: Staphylococcus Coag Neg (step); test: Example 3: colony color on chromogenic TSA II with 5% sheep blood (chromogen in medium); conditions: for Colony Color: 21 h
[5] = system: Citrobacter freundii (cifr); test: as above
[6] = system: Pseudomonas aeruginosa (psae); test: as above; conditions: for Colony Color: CO2, 21 h
[7] = system: 55 strains; test: Example 3: color, hemolytic activity and growth over all 55 strains; conditions: chromogenic TSA II
Excerpt: Steers, E. et al., Antibiot.

[8] = system: milu 9341; test: Example 3: colony color on chromogenic TSA II with 5% sheep blood (chromogen in medium); conditions: CO2, 21 h
[9] = system: Entercoccus faecalis (enfa); test: as above
[10] = system: Klebsiella pneumoniae (klpn); test: as above
[11] = system: S. milleri (stmi); test: as above
[12] = system: Staphylococcus aureus (stau); test: as above
[13] = system: cakr 34135; test: as above; conditions: CO2, 21 h
[14] = system: S pyogenes (stpy); test: as above; conditions: for Colony Color: 21 h
[15] = system: Aeromonas hydrophilia (aehy); test: as above; conditions: for Colony Color: CO2, 21 h
[16] = system: S. pneumoniae (stpn); test: as above
[17] = system: Candida albicans (caal); test: as above; conditions: for Colony Color: caal 10231, 24 h
[18] = system: E. faecium (enfu); test: as above; conditions: for Colony Color: enfu 49032, 21 h
[19] = system: Serratia marcescens (sema); test: as above
[20] = system: Salmonella spp. (sasp); conditions: for Colony Color: CO2, 21 h
[21] = chromogenic TSA II with 5% Sheep Blood, 0.1 g/l, 2 strains tested
[22] = chromogenic TSA II with 5% Sheep Blood, 0.1 g/l, 3 strains tested
[23] = chromogenic TSA II with 5% Sheep Blood, 0.1 g/l, 5 strains tested
[24] = chromogenic TSA II with 5% Sheep Blood, 0.1 g/l, 6 strains tested
[25] = chromogenic TSA II with 5% Sheep Blood, 0.1 g/l, 1 strain tested

Structure (SMILES): O=S(=O)([O-])Oc1c[nH]c2ccc(Br)c(Cl)c12.[K+] [X-Sulf, 5-Br-4-Cl-3-indolyl-sulfate (Potassium salt)]
- Colony Color ([1]; brca 25238): 0
- Colony Color ([1]; brca 25240): 0
- Colony Color (Summary) [1, 21]: 0
- Colony Color (Summary) [2, 22]: 0
- Colony Color ([2]; stag 4768, CO2, 21 h): 0
- Colony Color ([2]; stag 4768, air, 21 h): 0
- Colony Color ([2]; stag 12386, CO2, 21 h): 0
- Colony Color ([2]; stag 12386, CO2, 24 h): 0
- Colony Color ([2]; stag 12386, air, 24 h): 0
- Colony Color (Summary) [3, 22]: 0
- Colony Color ([3]; esco 11775, CO2, 21 h): 0
- Colony Color ([3]; esco 25922, CO2, 24 h): 0
- Colony Color ([3]; esco 25922, air, 24 h): 0
- Colony Color ([3]; esco 33605, CO2, 21 h): 0
- Colony Color (Summary) [4, 23]: 0
- Colony Color ([4]; step 12228, CO2): 0
- Colony Color ([4]; step 12228, air): 0
- Colony Color ([4]; step cdc1, CO2): 0
- Colony Color ([4]; step cdc1, air): 0
- Colony Color ([4]; step cdc2, CO2): 0
- Colony Color ([4]; step cdc2, air): 0
- Colony Color ([4]; step cdc3, CO2): 0
- Colony Color ([4]; step cdc3, air): 0
- Colony Color ([4]; step cdc4, CO2): 0
- Colony Color ([4]; step cdc4, air): 0
- Colony Color ([5]; One strain of Citrobacter): grey blue
- Colony Color (Summary) [5, 21]: +
- Colony Color ([5]; cifr 8454, CO2, 21 h): 0
- Colony Color ([5]; cifr 33128, CO2, 21 h): gb
- Colony Color (Summary) [6, 22]: 0
- Colony Color ([6]; psae 9027): 0
- Colony Color ([6]; psae 15442): 0
- Colony Color ([6]; psae 33607): 0
- Activity (color) for most organisms [7]: inactive
- Colony Color [8]: 0
- Colony Color (Summary) [9, 24]: 0
- Colony Color ([9]; enfa 597, CO2, 21 h): 0
- Colony Color ([9]; enfa 597, air, 21 h): 0
- Colony Color ([9]; enfa 10741, CO2, 21 h): 0
- Colony Color ([9]; enfa 10741, air, 21 h): 0
- Colony Color ([9]; enfa 12953, CO2, 21 h): 0
- Colony Color ([9]; enfa 12953, air, 21 h): 0
- Colony Color ([9]; enfa 14506, CO2, 21 h): 0
- Colony Color ([9]; enfa 14506, air, 21 h): 0
- Colony Color ([9]; enfa 29212, CO2, 21 h): 0
- Colony Color ([9]; enfa 29212, CO2, 24 h): 0
- Colony Color ([9]; enfa 29212, air, 21 h): 0
- Colony Color ([9]; enfa 29212, air, 24 h): 0
- Colony Color (Summary) [10, 22]: 0
- Colony Color ([10]; klpn 13883, CO2, 21 h): 0
- Colony Color ([10]; klpn 33495, CO2, 24 h): 0
- Colony Color ([10]; klpn 33495, air, 24 h): 0
- Colony Color ([10]; klpn 33606, CO2, 21 h): 0
- Colony Color (Summary) [11, 21]: 0
- Colony Color ([11]; stmi 6249, air, 21 h): 0
- Colony Color (Summary) [12, 23]: 0
- Colony Color ([12]; stau 1006, CO2, 21 h): 0
- Colony Color ([12]; stau 1007, CO2, 21 h): 0
- Colony Color ([12]; stau 1008, CO2, 21 h): 0
- Colony Color ([12]; stau 1009, CO2, 21 h): 0
- Colony Color ([12]; stau 25923, CO2, 24 h): 0
- Colony Color ([12]; stau 25923, air, 24 h): 0
- Colony Color [13]: 0
- Colony Color (Summary) [14, 24]: 0
- Colony Color ([14]; stpy 1027, CO2): 0
- Colony Color ([14]; stpy 1028, CO2): 0
- Colony Color ([14]; stpy 1029, CO2): 0
- Colony Color ([14]; stpy 1030, CO2): 0
- Colony Color ([14]; stpy 19615, CO2): 0
- Colony Color ([14]; stpy 19615, air): 0
- Colony Color ([14]; stpy 49117, CO2): 0
- Colony Color ([14]; stpy 49117, air): 0
- Colony Color ([14]; stpy 51339, CO2): 0
- Colony Color ([14]; stpy 51339, air): 0
- Colony Color ([15]; aehy 7965): 0
- Colony Color ([15]; aehy 7966): 0
- Colony Color ([15]; aehy 49847): 0
- Colony Color (Summary) [15, 22]: 0
- Colony Color (Summary) [16, 24]: 0
- Colony Color ([16]; stpn 1259, CO2, 21 h): 0
- Colony Color ([16]; stpn 1260, CO2, 21 h): 0
- Colony Color ([16]; stpn 1628, CO2, 21 h): 0
- Colony Color ([16]; stpn 6303, CO2, 24 h): 0
- Colony Color ([16]; stpn 6303, air, 24 h): 0
- Colony Color ([16]; stpn 6305, CO2, 24 h): 0
- Colony Color ([16]; stpn 6305, air, 24 h): 0
- Colony Color ([17]; CO2): 0
- Colony Color ([17]; air): 0
- Colony Color (Summary) [17, 21]: 0
- Colony Color (Summary) [18, 25]: 0
- Colony Color ([18]; CO2): 0
- Colony Color ([18]; air): 0
- Colony Color (Summary) [19, 25]: 0
- Colony Color ([19]; sema 13880, CO2, 21 h): 0
- Colony Color (Summary) [20, 21]: 0
- Colony Color ([20]; saty 19430): 0
- Colony Color ([20]; satym 14028): 0
